One assay has as its system FAO. In words: FAO SC 150 / FAO Max. Particulars: for FAO Max: at the concentration given under E18.
A further assay relates to H. In words: Crystal violet cell growth assay, H. It counts as cell-based. Particulars: read-out: Cr. Violet (IC50). The method, then:
Crystal Violet Cell Growth Assay
The crystal violet assay measure cell growth but not cytotoxicity. This assay employs crystal violet staining of fixed cells in 96-well plates with subsequent solubilization and measurement of OD490 on a spectrophotometer. The OD490 corresponds to cell growth per unit time measured. Cells are treated with the compounds of interest or vehicle controls and IC50 for each compound is computed.
To measure the cytotoxicity of specific compounds against cancer cells, 5×10^4 MCF-7 human breast cancer cells, obtained from the American Type Culture Collection are plated per well in 24 well plates in DMEM medium with 10% fetal bovine serum, penicillin, and streptomycin. Following overnight culture at 37° C. and 5% CO2, the compounds to be tested, dissolved in DMSO, are added to the wells in 1 μl volume at the following concentrations: 50, 40, 30, 20, and 10 μg/ml in triplicate. Additional concentrations are tested if required. 1 μl of DMSO is added to triplicate wells are the vehicle control. C75 is run at 10, and 5 μg/ml in triplicate as positive controls.
After 72 hours of incubation, cells are stained with 0.5 ml of Crystal Violet stain (0.5% in 25% methanol) in each well. After 10 minutes, wells are rinsed, air dried, and then solubilized with 0.5 ml 10% sodium dodecylsulfate with shaking for 2 hours. Following transfer of 100 μl from each well to a 96-well plate, plates are read at OD490 on a Molecular Devices SpectraMax Plus Spectrophotometer Average OD490 values are computed using SOFTmax Pro Software (Molecular Devices) and IC50 values are determined by linear regression analysis using Prism version 3.02 (Graph Pad Software, San Diego).

Assay [1] has as its system MCF-7 human breast cancer cells. In words: [14C]acetate incorporation into total lipids. It counts as cell-based. As to conditions: MCF7. The method, then: Measurement of [^14 C]acetate Incorporation into Total Lipids and Determination of IC50 of Compounds
This assay measures the incorporation of [^14C]acetate into total lipids and is a measure of fatty acid synthesis pathway activity in vitro. It is utilized to measure inhibition of fatty acid synthesis in vitro.
MCF-7 human breast cancer cells cultured as above, are plated at 5×10^4 cells per well in 24-well plates. Following overnight incubation, the compounds to be tested, solubilized in DMSO, are added at 5, 10, and 20 μg/ml in triplicate, with lower concentrations tested if necessary. DMSO is added to triplicate wells for a vehicle control. C75 is run at 5 and 10 μg/ml in triplicate as positive controls. After 4 hours of incubation, 0.25 μCi of [^14C]acetate (10 μl volume) is added to each well.
After 2 hours of additional incubation, medium is aspirated from the wells and 800 μl of chloroform:methanol (2:1) and 700 μl of 4 mM MgCl2 is added to each well. Contents of each well are transferred to 1.5 Eppendorf tubes, and spun at full-speed for 2 minutes in a high-speed Eppendorf Microcentrifuge 5415D. After removal of the aqueous (upper) layer, an additional 700 μl of chloroform:methanol (2:1) and 500 μl of 4 mM MgCl2 are added to each tube and then centrifuged for 1 minutes as above. The aqueous layer is removed with a Pasteur pipette and discarded. An additional 400 μl of chloroform:methanol (2:1) and 200 μl of 4 mM MgCl2 are added to each tube, then centrifuged and aqueous layer is discarded. The lower (organic) phase is transferred into a scintillation vial and dried at 40° C. under N2 gas. Once dried, 3 ml of scintillant (APB #NBC5104) is added and vials are counted for ^14C. The Beckman Scintillation counter calculates the average cpm values for triplicates.
The IC50 for the compounds is defined as the concentration of drug leading to a 50% reduction in [^14C]acetate incorporation into lipids compared to controls. This is determined by plotting the average cpm for each inhibitor concentration tested, performing linear regression and computing the best-fit line, r^2 values, and 95% confidence intervals. The average cpm values are computed by the Beckman scintillation counter (Model LS6500) for each compound concentration. Computation of linear regression, best-fit line, r^2, and 95% confidence intervals are calculated using Prism Version 3.0 (Graph Pad Software).

For assay [2] the test system is unchanged. In words: XTT cytotoxicity assay, MCF-7 (M). The class given is cell-based. As to conditions: Homo sapiens, MCF7; (M) or no code; MCF-7, 72 hours. The method, then:
The XTT assay is a non-radioactive alternative for the [^51Cr] release cytotoxicity assay. XTT is a tetrazolium salt that is reduced to a formazan dye only by metabolically active, viable cells. The reduction of XTT is measured spectrophotometrically as OD490-OD650.
To measure the cytotoxicity of specific compounds against cancer cells, 9×10^3 MCF-7 human breast cancer cells, obtained from the American Type Culture Collection are plated per well in 96 well plates in DMEM medium with 10% fetal bovine serum, insulin, penicillin, and streptomycin. Following overnight culture at 37° C. and 5% CO2, the compounds to be tested, dissolved in DMSO, are added to the wells in 1 μl volume at the following concentrations: 80, 40, 20, 10, 5, 2.5, 1.25, and 0.625 μg/ml in triplicate. Additional concentrations are tested if required. 1 μl of DMSO is added to triplicate wells are the vehicle control. C75 is run at 40, 20, 10, […], 10, and 5 in triplicate as positive controls.
After 72 hours of incubation, cells are incubated for 4 hours with the XTT reagent as per manufacturer's instructions (Cell Proliferation Kit II (XTT) Roche). Plates are read at OD490 and OD650 on a Molecular Devices SpectraMax Plus Spectrophotometer. Three wells containing the XTT reagent without cells serve as the plate blank. XTT data are reported as OD490-OD650. Averages and standard error of the mean are computed using SOFTmax Pro software ([…]).
The IC50 for the compounds is defined as the concentration of drug leading to a 50% reduction in OD400-OD650 compared to controls. The OD400-OD650 are computed by the SOFTmax PRO software (Molecular Devices) for each compound concentration. IC50 is calculated by linear regression, plotting the FAS activity as percent of control versus drug concentrations. Linear regression, best-fit line, r^2, and 95% confidence intervals are determined using Prism Version 3.0 (Graph Pad Software).
A general note: Tetrazolium assays rely on reduction of a dye to a coloured formazan, in cell work by metabolically active cells.

For a further assay, the system named is OV. In words: XTT cytotoxicity assay, OV. The class given is cell-based.

SMILES strings stand for the structures. Values after ≈ are worked out from the molar mass of the structure shown.

A word on the IC50: it is the point on the concentration scale where inhibition reaches its midpoint.

As to `CCCCCCCCC1(C)SC(=O)C=C1OCC(=O)NNc1nc2ccccc2s1` (single isomer, unassigned) [Compound 17, (5-Methyl-5-octyl-2-oxo-thiophen-4-yloxy)-acetic-acid-N′-(2-benzothiazole)-hydrazide], the “FAO Max: concentration at which the maximum was seen” value (“FAO Max: concentration” for short) with FAO is 6.25 µg/mL. Moreover, the “FAO SC 150” value with FAO was 4.9 µg/mL. In addition, in the assay on FAO, the “FAO Max” value worked out at 167% @. Further, the IC50 with H was 17.8 µg/mL (≈ 39.8 µM); in assay [1], over 80 µg/mL; in assay [2] it was 74 µg/mL (≈ 165 µM); in the assay on OV, 38.7 µg/mL (≈ 86.5 µM).
Take `CCCCCCCCC1(C)SC(=O)C=C1OCC(=O)NNc1ccccc1` (stereo not drawn) [Compound 10, (5-Methyl-5-octyl-2-oxo-thiophen-4-yloxy)-acetic-acid-N′-phenylhydrazide]: in the assay on FAO, the “FAO Max: concentration” value came out at 6.25 µg/mL. Moreover, the “FAO SC 150” value in the assay on FAO was “Neg”. In the assay on FAO, the “FAO Max” value was determined as 126% at. For the same compound, the IC50 came to 8.4 µg/mL (≈ 21.5 µM) in the assay with H, 7.2 µg/mL (≈ 18.4 µM) in assay [1], 6.9 µg/mL (≈ 17.7 µM) in assay [2] and 13.2 µg/mL (≈ 33.8 µM) in the assay with OV.
Take `CCCCCCCCC1(C)SC(=O)C=C1OCC(=O)NNc1cccc(C)c1` (stereo not drawn) [Compound 11, (5-Methyl-5-octyl-2-oxo-thiophen-4-yloxy)-acetic-acid-N′-(3-methylphenyl)-hydrazide]: the “FAO Max: concentration” value with FAO was 1.56 µg/mL. Further, the “FAO SC 150” value in the assay on FAO is given as “Neg”. The “FAO Max” value with FAO is reported as 116% @. For the same compound, the IC50 in the assay on H stood at 21.9 µg/mL (≈ 54.1 µM); in assay [1], 12 µg/mL (≈ 29.7 µM); in assay [2] it was 9 µg/mL (≈ 22.2 µM); in the assay on OV, 10.1 µg/mL (≈ 25 µM).
For `CCCCCCCCC1(C)SC(=O)C=C1OCC(=O)NNc1ccc(OC)cc1` (stereo not drawn) [Compound 13, (5-Methyl-5-octyl-2-oxo-thiophen-4-yloxy)-acetic-acid-N′-(4-methoxyphenyl)-hydrazide], the “FAO Max: concentration” value with FAO amounted to 0.098 μg/ml ug/ml. In addition, in the assay with FAO, the “FAO SC 150” value is on record as “Neg”. In addition, the “FAO Max” value in the assay with FAO is 103% at. In addition, the IC50 with H stood at 12.3 µg/mL (≈ 29.2 µM); in assay [1], 21.3 µg/mL (≈ 50.6 µM); in assay [2], 9 µg/mL (≈ 21.4 µM); with OV it was 18 µg/mL (≈ 42.8 µM).
In the case of `CCCCCCCCC1(C)SC(=O)C=C1OCC(=O)NNc1ccc(Cl)cc1Cl` (stereo not drawn) [Compound 14, (5-Methyl-5-octyl-2-oxo-thiophen-4-yloxy)-acetic-acid-N′-(2,4-dichlorophenyl)-hydrazide], the “FAO Max: concentration” value in the assay on FAO is listed as 0.098 μg/ml ug/ml. The “FAO SC 150” value in the assay with FAO is recorded as “Neg”. The “FAO Max” value in the assay on FAO is 100% at. For the same compound, the IC50 came out at 7.3 µg/mL (≈ 15.9 µM) with H, 18.3 µg/mL (≈ 39.8 µM) in assay [1], 6.9 µg/mL (≈ 15 µM) in assay [2] and 12.8 µg/mL (≈ 27.9 µM) in the assay with OV.
As to `CCCCCCCCC1(C)SC(=O)C=C1OCC(=O)NNc1ccc(Cl)c(Cl)c1` (stereo not drawn) [Compound 15, (5-Methyl-5-octyl-2-oxo-thiophen-4-yloxy)-acetic-acid-N′-(3,4-dichlorophenyl)-hydrazide], in the assay on FAO, the “FAO Max: concentration” value was 0.395 μg/ml ug/ml. In addition, in the assay with FAO, the “FAO SC 150” value was “Neg”. In addition, the “FAO Max” value in the assay on FAO is recorded as 100% at. Also, the 50% inhibitory concentration (IC50) was found to be 8.5 µg/mL (≈ 18.5 µM) with H, 13.3 µg/mL (≈ 28.9 µM) in assay [1], 11.4 µg/mL (≈ 24.8 µM) in assay [2] and 15.2 µg/mL (≈ 33.1 µM) in the assay on OV.

The values are drawn from patent US20100168176A1, “NOVEL COMPOUNDS, PHARMACEUTICAL COMPOSITIONS CONTAINING SAME, AND METHODS OF USE FOR SAME” (FASGEN LLC, priority 2006, published 2010).
